From patent US7960567B2, “Compounds and methods useful for treating asthma and allergic inflammation” (Amgen Inc., priority 2007, dated 2011)

How the values were obtained:
[1] = target: T1, human CRTH2 (Homo sapiens, UniProt Q9Y5Y4); assay: Human CRTH2 binding assay (3H-PGD2 binding, 293(124) cells); conditions: 1 nM 3H-PGD2 and 30 nM unlabeled PGD2, read-out: IC50 observed in CRTH2 binding assay
T1 construct: Full-length human CRTH2 cDNA was generated by polymerase chain reaction (PCR); expressed in transfected cells
T1 sequence (Q9Y5Y4 1-395): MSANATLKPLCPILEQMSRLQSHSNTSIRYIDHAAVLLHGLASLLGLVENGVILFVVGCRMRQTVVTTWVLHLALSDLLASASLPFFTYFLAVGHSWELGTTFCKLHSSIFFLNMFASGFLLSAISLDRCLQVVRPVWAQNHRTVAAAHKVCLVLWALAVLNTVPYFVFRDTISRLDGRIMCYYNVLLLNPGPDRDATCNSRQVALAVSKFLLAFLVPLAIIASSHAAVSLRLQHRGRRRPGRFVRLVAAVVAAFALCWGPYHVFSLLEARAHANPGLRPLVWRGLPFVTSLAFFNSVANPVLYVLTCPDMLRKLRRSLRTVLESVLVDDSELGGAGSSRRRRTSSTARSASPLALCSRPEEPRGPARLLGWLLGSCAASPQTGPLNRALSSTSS
Method: Full-length human CRTH2 cDNA was generated by polymerase chain reaction (PCR) using human genomic DNA as template and subsequently cloned into pcDNA3.1(+) (Invitrogen Corp., Carlsbad, Calif.), generating a CRTH2 expression plasmid pHLT124. The plasmid was transfected into 293 cells, […], using LIPOFECTAMINE™ reagents (Invitrogen Corp., Carlsbad, Calif.). G418 ([…]) was added to the culture 48 h after transfection and cells were maintained under selection for 3 weeks to ensure that all surviving cells stably expressed CRTH2. These cells are labeled as 293(124) hereafter.
^3H-PGD2 binding assay was performed using 293(124) cells. In brief, cells were washed and suspended in RPMI containing 0.5% BSA and 20 mM HEPES. Each assay contained 25,000 cells, appropriate amount of test compound when necessary and a mixture of 1 nM ^3H-PGD2 (Amersham Biosciences, Piscataway, N.J.) and 30 nM of unlabeled PGD2 (Cayman Chemical Co., Ann Arbor, Mich.) in […] final volume. The cell mixture was incubated at room temperature for 2.5 h with shaking and the cells were separated from free ^3H-PGD2 and transferred onto a filter plate using a cell harvester. Radioactivity bound to the cells was measured on a liquid scintillation counter. Nonspecific binding was determined in the presence of […] of unlabeled PGD2.

[2] = target: T2, human DP (Homo sapiens, UniProt Q13258); assay: Human DP binding assay (3H-PGD2 binding, 293(128) cells); conditions: 2 nM 3H-PGD2 and 0 nM unlabeled PGD2, read-out: IC50 observed in DP binding assay
T2 construct: Full-length human DP cDNA was generated by PCR using human genomic DNA as a template; expressed in transfected cells
T2 sequence (Q13258 1-359): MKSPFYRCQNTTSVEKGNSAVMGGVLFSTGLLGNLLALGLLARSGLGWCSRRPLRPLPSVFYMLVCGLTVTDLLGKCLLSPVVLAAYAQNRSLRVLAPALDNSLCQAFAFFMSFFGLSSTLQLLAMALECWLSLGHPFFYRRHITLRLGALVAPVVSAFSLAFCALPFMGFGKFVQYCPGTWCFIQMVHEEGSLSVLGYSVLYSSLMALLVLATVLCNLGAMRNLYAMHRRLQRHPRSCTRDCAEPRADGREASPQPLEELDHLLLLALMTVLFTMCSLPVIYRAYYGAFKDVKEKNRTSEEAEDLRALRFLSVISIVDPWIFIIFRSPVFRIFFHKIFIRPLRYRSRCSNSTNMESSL
Method: Full-length human DP cDNA was generated by PCR using human genomic DNA as a template and subsequently cloned into pcDNA3.1(+) to generate a DP expression plasmid. The plasmid was transfected into 293 cells to generate a line of cells that have stable overexpression of human DP, termed 293(128) cells, essentially as described above for CRTH2. ^3H-PGD2 binding assays were performed using 293(128) cells as described above for CRTH2 except that each assay contained 350,000 cells, and 2 nM ^3H-PGD2 and 0 nM unlabeled PGD2.

SMILES: COc1cc(CC(=O)O)ccc1Oc1ccc2[nH]c(C)cc2c1NS(=O)(=O)c1ccc(Cl)cc1Cl [Example 1, 2-(4-(4-(2,4-Dichlorophenylsulfonamido)-2-methyl-1H-indol-5-yloxy)-3-methoxyphenyl)acetic acid]
- IC50 [1]: 10 to 100 nM
- IC50 [2]: < 10 nM

SMILES: O=C(O)Cc1ccc(Oc2cc3c(cc2NS(=O)(=O)c2ccc(Cl)cc2)C(=O)NC3=O)c(Cl)c1 [Example 30, 2-(3-Chloro-4-(6-(4-chlorophenylsulfonamido)-1,3-dioxoisoindolin-5-yloxy)phenyl)acetic acid]
- IC50 [1]: 100 to 1000 nM
- IC50 [2]: 1000 to 15000 nM
